Results taken from article PMC2784364, “VX-166: a novel potent small molecule caspase inhibitor as a potential therapy for sepsis” (Critical Care, 2009).
Entries after “also recorded” stand apart in the source; their conditions may differ.

Assays:
PBMC = PBMC viability (MTS assay); format: cell-based, human; conditions: MTS assay conducted simultaneously with cytokine release assays
Experimental: Peripheral blood mononuclear cells (PBMC) from healthy donors were isolated by Ficoll-Paque gradient centrifugation from buffy coats obtained from the National Blood Transfusion Service (Bristol, UK). For IL-1β release, 5 × 10^5 cells/ml were then stimulated with 50 ng/ml lipopolysaccharide (LPS) from Escherichia coli (Sigma-Aldrich Ltd., Poole, UK) in the presence or absence of VX-166 and incubated for 18 hours. Secretion of IL-1β into the supernatant was determined by ELISA (R&D Systems, Abingdon, UK) following the manufacturer's instructions. For IL-18 release, 7.5 × 10^5 cells/ml were stimulated with 6.25 × 10^-4% (w/v) Staphylococcus aureus cell suspension (SAC; Sigma-Aldrich Ltd., Poole, UK) in the presence or absence of VX-166 and incubated overnight. The IL-18 content in the supernatants was quantified by ELISA (Caltag-MedSystems Ltd., Buckingham, UK) following the manufacturer's instructions. In both assays PBMC viability was assessed after the 18 hours incubation time using MTS assay (Promega UK Ltd., Southampton, UK) to ensure that the reduction in cytokine release was not caused by a cytotoxic effect of the compound.

CD-1 mice = experiment: Endotoxic shock in the mouse (LPS 20 mg/kg iv), survival; format: in vivo
Experimental: Endotoxic shock studies were approved by the Vertex Pharmaceuticals Institutional Animal Care and Use Committee. Adult male CD-1 mice (weighing 30 to 32 g; Charles River Laboratories, Wilmington, MA, USA) were administered LPS (from E. coli serotype 0111:B4, Sigma-Aldrich, St. Louis, MO, USA) at 20 mg/kg iv and survival was monitored for 96 hours (n = 28 per group). VX-166 or vehicle (10% propylene glycol: 90% sodium phosphate buffer pH 8) were administered by repeat iv bolus at 0 hours (co-injection with LPS), 4, 8 and 12 hours post-LPS. VX-166 was administered at 1, 3, 10 or 30 mg/kg.

thymocytes = experiment: CLP rat, thymocyte apoptosis by flow cytometry; format: in vivo; conditions: 20 hours, 25 mg/ml pump, n = 10
Experimental: CLP studies were performed in accordance with the National Institutes of Health guidelines for the use of experimental animals and were approved by the Institutional Animal Care and Use Committee of the Feinstein Institute for Medical Research. Adult male Sprague-Dawley rats (weighing 275 to 325 g, Charles River Laboratories, Wilmington, MA, USA) were fasted overnight then anaesthetised with isoflurane. The caecum was exposed via a 2 cm midline incision. It was ligated just distal to the ileocaecal valve, then punctured twice with an 18-gauge needle and gently squeezed to release a small amount of faecal material to ensure patency of the perforation sites before the abdominal incision was closed. Sham-operated rats underwent the same procedure with the exception that the caecum was neither ligated nor punctured. Animals received subcutaneous fluids (30 ml/kg saline) immediately after the procedure. No antibiotics were administered. In the 7 and 10 day survival studies animals were re-anaesthetised 20 hours after CLP, the perforated caecum was removed and the abdominal cavity washed twice with 40 ml of warm, sterilised saline. The abdominal cavity was closed, anaesthetics withdrawn and rats returned to their cages where they were allowed free access to food and water. In the 20 hour endpoint study the caecum was not removed. […]
Rat PBMC were isolated from heparinised blood by Ficoll Paque (GE Healthcare Bio-Sciences Corp., Piscataway, NJ, USA) density gradient centrifugation and washed three times with PBS (Invitrogen, Carlsbad, CA, USA). […] Cells were then washed twice in PBS, counted and reconstituted in Ca^2+-rich Annexin-V binding buffer (BD Biosciences, San Jose, CA, USA) at a concentration of 1 × 10^7 cells/ml. […] Cells were then analysed by flow cytometry with the FACS-Calibur (BD Biosciences, San Jose, CA, USA) and percentages of viable (Annexin-V^-/PI^-), early apoptotic (Annexin-V^+/PI^-), late apoptotic (Annexin-V^+/PI^+) and necrotic (Annexin-V^-/PI^+) cells were determined.

Jurkat cells = experiment: Anti-Fas induced apoptosis in Jurkat cells, Annexin V; format: cell-based, human; conditions: Anti-Fas, Human Jurkat cell line/Annexin V, 18 hours, n = 4; read-out: IC50, inhibition of apoptosis
Experimental: Jurkat cells were obtained from LGC Standards (Teddington, UK) and were grown in RPMI 1640, 10% FCS, 2 mM L-glutamine, 100 U/ml penicillin and 0.1 mg/ml streptomycin (all from Sigma Aldrich Ltd., Poole, UK) at 37°C in 5% CO2/95% humidity. Receptor- or stress-mediated apoptosis (2 × 10^5 cells/ml) was induced by addition of either anti-Fas antibody CH-11 (10 ng/ml, Millipore UK Ltd., Watford, UK), TNF-α (20 ng/ml, R&D Systems, Abingdon, UK) with cycloheximide (112 ng/ml, Sigma Aldrich Ltd., Poole, UK) or staurosporine (350 ng/ml, Sigma Aldrich Ltd., Poole, UK). VX-166 was diluted into DMSO (10 mM), further diluted in media and added at a range of concentrations. Cells were then incubated for 18 hours. Apoptotic cells were then labelled with Cy5-conjugated Annexin-V (BD Biosciences, Oxford, UK) and detected using a FMAT™ 8100 Fluorimetric Microassay Technology Reader (Applied Biosystems, Warrington, UK). For the experiments using anti-Fas antibody, apoptosis was additionally measured using a Cell Death Detection ELISA kit (Roche Diagnostics Ltd., Lewes, UK) following the manufacturer's instructions.

CCC(C(=O)NC(CC(=O)O)C(=O)COc1c(F)c(F)cc(F)c1F)n1cccc(NC(=O)OC)c1=O (centres unmarked) [VX-166]
cytotoxic effect in PBMC viability assay (PBMC): not due to a cytotoxic effect
survival rate at 96 hours compared with vehicle control (CD-1 mice; LPS 20 mg/kg iv, 30 mg/kg iv at 0, 4, 8, 12 hours): more than doubled
survival over 96 hours (CD-1 mice; LPS 20 mg/kg iv, 1, 3, 10 or 30 mg/kg repeat iv bolus at 0, 4, 8 and 12 hours post-LPS, vs vehicle): significantly improved survival in a dose-dependent fashion
survival compared with vehicle control, second study (CD-1 mice; different batch of LPS, 30 mg/kg iv at 0, 4, 8, 12 hours, P < 0.0001): substantially improved survival
level of necrotic thymocytes between groups (thymocytes): remained unchanged
percentage of early apoptotic thymocytes vs vehicle CLP group (thymocytes): significantly inhibited thymic atrophy and lymphocyte apoptosis; also recorded: reduced the percentage of early apoptotic thymocytes
percentage of viable thymocytes vs vehicle CLP group (thymocytes): significantly increased the percentage of viable cells
IC50 (Jurkat cells): 27 ± 9 nM
